Test results from article PMC4183140 (Journal of medicinal chemistry, 2009).

Tested on: 1A9 ovarian cancer cells
Assay: Anti-proliferative activity in 1A9 ovarian cancer cells
Format: cell-based
Details: for Antiproliferative activity (in words): antiproliferative assays, highest concentration tested 50 μM

CC[C@H](C)[C@H](NC(=O)[C@H]1CCCCN1C)C(=O)N[C@H](C[C@@H](O)c1nc(C(=O)N[C@@H](Cc2ccccc2)C[C@H](C)C(=O)O)cs1)C(C)C [Compound 4, tubulysin V]
Fold more active than epi-tubulysin V in the antiproliferative assays (antiproliferative assays (1A9 and MCF-7), relative to epi-tubulysin V): 30–45 fold

CC[C@H](C)[C@H](NC(=O)[C@@H](C)N(C)C)C(=O)N[C@H](CC(=O)c1nc(C(=O)N[C@@H](Cc2ccccc2)C[C@H](C)C(=O)O)cs1)C(C)C [Compound 21]
Antiproliferative activity (in words): not active

CC[C@H](C)[C@H](NC(=O)[C@@H](C)N(C)C)C(=O)N[C@H](CC(=O)c1nc(C(=O)N[C@H](CCC(=O)O)Cc2ccccc2)cs1)C(C)C [Compound 22]
Antiproliferative activity (in words): sub-micromolar activity
